Measurements as given in patent US20250281424A1 (New York Blood Center, Inc, priority 2020, published 2025).

Molecular target: T1, human PF4 (Homo sapiens, UniProt P02776)
T1 construct: PF4 is a 70 amino acid, lysine-rich 7.8 kDa platelet-specific protein; made in house; host or cells: Escherichia coli BL21DE3 pLysS (pT7-7) and/or Drosophila S2 cells
T1 sequence (P02776 32-101): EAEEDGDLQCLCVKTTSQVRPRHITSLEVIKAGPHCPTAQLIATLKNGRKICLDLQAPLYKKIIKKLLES
Assay: Inhibition of PF4 tetramer formation (BS3 cross-linking, SDS-PAGE)
Type: biochemical
Conditions: for inhibition at 1 µM: 1 μM inhibitor; for inhibition at 1 µM / inhibition at 3 µM / inhibition at 5 µM / inhibition at 10 µM: read-out: % inhibition of PF4 tetramer formation at single concentration of inhibitor; for inhibition at 3 µM: 3 μM inhibitor (column A); for inhibition at 5 µM: 5 μM inhibitor; for inhibition at 10 µM: 10 μM inhibitor (column A); for IC50: read-out: IC50 of PF4 tetramer formation inhibition
How it was run: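 Monomer, dimer, trimer and tetramer fractions were quantified by densitometry after reducing 12% SDS-PAGE of BS3-cross-linked (0.2 mM, 30 min, room temperature) PF4. Before cross-linking, 10 μg/ml E. coli-expressed human WT PF4 in PBS was exposed to compound for 15 min at 37° C or 60 min at room temperature; controls lacked compound.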

SMILES: O=C(NC1CCC1)C1C(=O)c2ccc(Oc3ccc4c(c3)C(=O)C(C(=O)NC3CCC3)C4=O)cc2C1=O (stereo not drawn) [Example 389, N-cyclobutyl-5-{[2-(cyclobutylcarbamoyl)-1,3-dioxo-2,3-dihydro-1H-inden-5-yl]oxy}-1,3-dioxo-2,3-dihydro-1H-indene-2-carboxamide]
- inhibition at 1 µM: 31%
- inhibition at 3 µM: 80%

SMILES: O=C(CN1CCCC1=O)C1C(=O)c2ccc(C#Cc3ccc4c(c3)C(=O)C(C(=O)CN3CCCC3=O)C4=O)cc2C1=O (stereo not drawn) [Example 293, 5-(2-{1,3-dioxo-2-[2-(2-oxopyrrolidin-1-yl)acetyl]-2,3-dihydro-1H-inden-5-yl}ethynyl)-2-[2-(2-oxopyrrolidin-1-yl)acetyl]-2,3-dihydro-1H-indene-1,3-dione]
- inhibition at 1 µM: 28%
- inhibition at 3 µM: 43%

SMILES: CC(C)OCC(=O)C1C(=O)c2ccc(Oc3ccc4c(c3)C(=O)C(C(=O)COC(C)C)C4=O)cc2C1=O (stereo not drawn) [Example 378, 5-({1,3-dioxo-2-[2-(propan-2-yloxy)acetyl]-2,3-dihydro-1H-inden-5-yl}oxy)-2-[2-(propan-2-yloxy)acetyl]-2,3-dihydro-1H-indene-1,3-dione]
- inhibition at 1 µM: 39%
- inhibition at 3 µM: 69%

SMILES: COCCOCCN(CC(=O)C1C(=O)c2ccc(S(=O)(=O)c3ccc4c(c3)C(=O)C(C(=O)CN(CCOCCOC)C(=O)OC(C)(C)C)C4=O)cc2C1=O)C(=O)OC(C)(C)C (stereo not drawn) [Example 392, tert-butyl N-{2-[5-({2-[2-(11,11-dimethyl-9-oxo-2,5,10-trioxa-8-azadodecan-8-yl)acetyl]-1,3-dioxo-2,3-dihydro-1H-inden-5-yl}sulfonyl)-1,3-dioxo-2,3-dihydro-1H-inden-2-yl]-2-oxoethyl}-N-[2-(2-methoxyethoxy)ethyl]carbamate]
- inhibition at 1 µM: 1%
- inhibition at 3 µM: 1%

SMILES: CC(C)(C)OC(=O)N1CCC[C@@H]1C(=O)C1C(=O)c2ccc(C(=O)c3ccc4c(c3)C(=O)C(C(=O)[C@H]3CCCN3C(=O)OC(C)(C)C)C4=O)cc2C1=O (stereo partly drawn) [Example 161]
- inhibition at 5 µM: 87%
- inhibition at 10 µM: 93%
- IC50: 1 µM

SMILES: CN(CC(=O)C1C(=O)c2ccc(C(=O)c3ccc4c(c3)C(=O)C(C(=O)CN(C)C(=O)OC(C)(C)C)C4=O)cc2C1=O)C(=O)OC(C)(C)C (stereo not drawn) [Example 264, tert-butyl N-(2-{5-[2-(2-{[(tert-butoxy)carbonyl](methyl)amino}acetyl)-1,3-dioxo-2,3-dihydro-1H-indene-5-carbonyl]-1,3-dioxo-2,3-dihydro-1H-inden-2-yl}-2-oxoethyl)-N-methylcarbamate]
- inhibition at 1 µM: 72%
- inhibition at 3 µM: 75%
- IC50: 9.83 µM

SMILES: CC(C)(C)OC(=O)N1CC2(CC(C(=O)C3C(=O)c4ccc(-c5ccc6c(c5)C(=O)C(C(=O)C5CC7(C5)CN(C(=O)OC(C)(C)C)C7)C6=O)cc4C3=O)C2)C1 (stereo not drawn) [Example 211, tert-butyl 6-(2′-{2-[(tert-butoxy)carbonyl]-2-azaspiro[3.3]heptane-6-carbonyl}-1,1′,3,3′-tetraoxo-1H,1′H,2H,2′H,3H,3′H-[5,5′-biindene]-2-carbonyl)-2-azaspiro[3.3]heptane-2-carboxylate]
- inhibition at 5 µM: 76%
- inhibition at 10 µM: 95%
- IC50: 3.3 µM

SMILES: CCOCC(=O)C1C(=O)c2ccc(Oc3ccc4c(c3)C(=O)C(C(=O)COCC)C4=O)cc2C1=O (stereo not drawn) [Example 247, 2-(2-ethoxyacetyl)-5-{[2-(2-ethoxyacetyl)-1,3-dioxo-2,3-dihydro-1H-inden-5-yl]oxy}-2,3-dihydro-1H-indene-1,3-dione]
- inhibition at 1 µM: 19%
- inhibition at 3 µM: 27%
- IC50: 3 µM

SMILES: COCCOCCOCCNC(=O)C1C(=O)c2ccc(Oc3ccc4c(c3)C(=O)C(C(=O)NCCOCCOCCOC)C4=O)cc2C1=O (stereo not drawn) [Example 384, N-{2-[2-(2-methoxyethoxy)ethoxy]ethyl}-5-{[2-({2-[2-(2-methoxyethoxy)ethoxy]ethyl}carbamoyl)-1,3-dioxo-2,3-dihydro-1H-inden-5-yl]oxy}-1,3-dioxo-2,3-dihydro-1H-indene-2-carboxamide]
- inhibition at 1 µM: 4%
- inhibition at 3 µM: 9%

SMILES: O=C(NC1CCCC1)C1C(=O)c2ccc(Oc3ccc4c(c3)C(=O)C(C(=O)NC3CCCC3)C4=O)cc2C1=O (stereo not drawn) [Example 107, N-cyclopentyl-5-{[2-(cyclopentylcarbamoyl)-1,3-dioxo-2,3-dihydro-1H-inden-5-yl]oxy}-1,3-dioxo-2,3-dihydro-1H-indene-2-carboxamide]
- IC50: 2.9 µM

SMILES: O=C(CCC(=O)C1C(=O)c2ccc(Oc3ccc4c(c3)C(=O)C(C(=O)CCC(=O)c3cccc(Cl)c3Cl)C4=O)cc2C1=O)c1cccc(Cl)c1Cl (stereo not drawn) [Example 258, 2-[4-(2,3-dichlorophenyl)-4-oxobutanoyl]-5-({2-[4-(2,3-dichlorophenyl)-4-oxobutanoyl]-1,3-dioxo-2,3-dihydro-1H-inden-5-yl}oxy)-2,3-dihydro-1H-indene-1,3-dione]
- inhibition at 1 µM: 18%
- inhibition at 3 µM: 33%

SMILES: CC[C@H](C)[C@H](NC(=O)C1C(=O)c2ccc(Oc3ccc4c(c3)C(=O)C(C(=O)N[C@H](C(=O)OC)[C@@H](C)CC)C4=O)cc2C1=O)C(=O)OC (stereo partly drawn) [Example 331, methyl (2S,3S)-2-({5-[(2-{[(2S,3S)-1-methoxy-3-methyl-1-oxopentan-2-yl]carbamoyl}-1,3-dioxo-2,3-dihydro-1H-inden-5-yl)oxy]-1,3-dioxo-2,3-dihydro-1H-inden-2-yl}formamido)-3-methylpentanoate]
- inhibition at 1 µM: 37%
- inhibition at 3 µM: 66%

SMILES: O=C(NC1CCOCC1)C1C(=O)c2ccc(S(=O)(=O)c3ccc4c(c3)C(=O)C(C(=O)NC3CCOCC3)C4=O)cc2C1=O (stereo not drawn) [Example 368, N-(oxan-4-yl)-5-({2-[(oxan-4-yl)carbamoyl]-1,3-dioxo-2,3-dihydro-1H-inden-5-yl}sulfonyl)-1,3-dioxo-2,3-dihydro-1H-indene-2-carboxamide]
- inhibition at 1 µM: 1%
- inhibition at 3 µM: 45%

SMILES: O=C(c1ccc2c(c1)C(=O)C(C(=O)[C@@H]1C[C@H]1C(=O)O)C2=O)c1ccc2c(c1)C(=O)C(C(=O)[C@@H]1C[C@H]1C(=O)O)C2=O (stereo in doubt) [Example 222, (1R,2R)-2-(5-{2-[(1R,2R)-2-carboxycyclopropanecarbonyl]-1,3-dioxo-2,3-dihydro-1H-indene-5-carbonyl}-1,3-dioxo-2,3-dihydro-1H-indene-2-carbonyl)cyclopropane-1-carboxylic acid]
- inhibition at 5 µM: 94%
- inhibition at 10 µM: 97%
- IC50: 1.4 µM

SMILES: O=C(c1ccc2c(c1)C(=O)C(C(=O)CC1CCCC1=O)C2=O)c1ccc2c(c1)C(=O)C(C(=O)CC1CCCC1=O)C2=O (stereo not drawn) [Example 261, 5-{1,3-dioxo-2-[2-(2-oxocyclopentyl)acetyl]-2,3-dihydro-1H-indene-5-carbonyl}-2-[2-(2-oxocyclopentyl)acetyl]-2,3-dihydro-1H-indene-1,3-dione]
- inhibition at 1 µM: 67%
- inhibition at 3 µM: 77%
- IC50: 1.32 µM

SMILES: CC(C)[C@@H](N)C(=O)C1C(=O)c2ccc(C(=O)c3ccc4c(c3)C(=O)C(C(=O)[C@H](N)C(C)C)C4=O)cc2C1=O (stereo partly drawn) [Example 352, 2-[(2R)-2-amino-3-methylbutanoyl]-5-{2-[(2R)-2-amino-3-methylbutanoyl]-1,3-dioxo-2,3-dihydro-1H-indene-5-carbonyl}-2,3-dihydro-1H-indene-1,3-dione]
- inhibition at 1 µM: 35%
- inhibition at 3 µM: 78%

SMILES: CCCCC(=O)C1C(=O)c2ccc(C(=O)c3ccc4c(c3)C(=O)C(C(=O)CCCC)C4=O)cc2C1=O (stereo not drawn) [Example 153, 5-(1,3-dioxo-2-pentanoyl-2,3-dihydro-1H-indene-5-carbonyl)-2-pentanoyl-2,3-dihydro-1H-indene-1,3-dione]
- inhibition at 5 µM: 100%
- inhibition at 10 µM: 100%
- IC50: 2.4 µM

SMILES: O=C1c2ccc(S(=O)(=O)c3ccc4c(c3)C(=O)C(C(=O)[C@H]3CCCN3)C4=O)cc2C(=O)C1C(=O)[C@@H]1CCNC1 (stereo partly drawn) [Example 350, 5-({1,3-dioxo-2-[(3R)-pyrrolidine-3-carbonyl]-2,3-dihydro-1H-inden-5-yl}sulfonyl)-2-[(2R)-pyrrolidine-2-carbonyl]-2,3-dihydro-1H-indene-1,3-dione]
- inhibition at 1 µM: 18%
- inhibition at 3 µM: 39%

SMILES: COC1CCC(C(=O)C2C(=O)c3ccc(S(=O)(=O)c4ccc5c(c4)C(=O)C(C(=O)C4CCC(OC)CC4)C5=O)cc3C2=O)CC1 (stereo not drawn) [Example 151, 2-(4-methoxycyclohexanecarbonyl)-5-{[2-(4-methoxycyclohexanecarbonyl)-1,3-dioxo-2,3-dihydro-1H-inden-5-yl]sulfonyl}-2,3-dihydro-1H-indene-1,3-dione]
- inhibition at 5 µM: 89%
- inhibition at 10 µM: 100%
- IC50: ~6 µM

SMILES: CO[C@@H](C(=O)C1C(=O)c2ccc(S(=O)(=O)c3ccc4c(c3)C(=O)C(C(=O)[C@H](OC)c3ccccc3)C4=O)cc2C1=O)c1ccccc1 (stereo partly drawn) [Example 136, 2-[(2R)-2-methoxy-2-phenylacetyl]-5-({2-[(2R)-2-methoxy-2-phenylacetyl]-1,3-dioxo-2,3-dihydro-1H-inden-5-yl}sulfonyl)-2,3-dihydro-1H-indene-1,3-dione]
- inhibition at 5 µM: 75%
- inhibition at 10 µM: 86%
- IC50: 18 µM

SMILES: O=C1c2ccc(S(=O)(=O)c3ccc4c(c3)C(=O)C(C(=O)C3CCN(C(=O)OCc5ccccc5)C3)C4=O)cc2C(=O)C1C(=O)C1CCN(C(=O)OCc2ccccc2)C1 (stereo not drawn) [Example 160, benzyl 3-{5-[(2-{1-[(benzyloxy)carbonyl]pyrrolidine-3-carbonyl}-1,3-dioxo-2,3-dihydro-1H-inden-5-yl)sulfonyl]-1,3-dioxo-2,3-dihydro-1H-indene-2-carbonyl}pyrrolidine-1-carboxylate]
- inhibition at 5 µM: 75%
- inhibition at 10 µM: 88%
- IC50: 5.1 µM
